According to PMC8026324, “In Vitro Antiplasmodial, Heme Polymerization, and Cytotoxicity of Hydroxyxanthone Derivatives” (Journal of Tropical Medicine, 2021):

What was measured:
[1] = system: Plasmodium falciparum 3D-7 (chloroquine-sensitive strain); test: In vitro antiplasmodial activity assay, microscopic method, strain 3D-7; format: cell-based; conditions: for IC50: 72 hours incubation, microscopic method, read-out: IC50 on P. falciparum 3D-7; for antiplasmodial activity category on P. falciparum 3D-7: category by IC50
Protocol: (§1) The test of antiplasmodial activity began with the culture of P. falciparum 3D-7 and FCR-3 using the modified Trager and Jensen method. The plasmodium was cultured in human O red blood cells diluted to 3% haematocrit in RPMI 1640 medium complemented with 10% human O serum. The medium was made by adding 10.43 g of powder RPMI 1640, 6 g HEPES, 2 g NaHCO3, 25 mg gentamycin, and sterile distilled water up to 1 L. The medium pH was adjusted so that it reached ±7.2. It was sterilized using a 0.22 μm filter and stored at 4°C. The complete plasmodium culture medium was made by adding human serum with a concentration of 10% in the medium. The plasmodium culture was incubated in candle jar in an incubator with a temperature of 37°C and was observed every 24 hours.
(§2) The plasmodium was synchronized to obtain the ring stage by adding 5% of D-sorbitol. The plasmodium was transferred from culture flask to a conical tube, and then it was centrifuged with a speed of 1000 rpm for 10 minutes. After the supernatant was disposed, the sterile 5% sorbitol was added and incubated for 10 minutes at a temperature of 37°C. The plasmodium suspension was centrifuged again; the supernatant was disposed and the plasmodium was washed by adding culture medium. Then, the plasmodium suspension was centrifuged again, and the supernatant was discarded, resulting in a plasmodium in ring stage only. The parasitemia was calculated from a thin blood preparation. The test used 1% parasitemia at 2% haematocrit in RPMI medium which complemented with 10% human O serum.
(§3) Each testing compound was dissolved in RPMI medium. The testing compound in various concentrations with volume of 100 μL was incorporated into the 96-well microplate, and then 100 μL of Plasmodium suspension was added. Each series of concentrations was replicated three times. The microplate was incubated at a temperature of 37°C for 72 hours. At the end of the incubation, a thin blood smear was made using 10% Giemsa stain and observed under a light microscope at 1000x magnification. The percentage of parasitemia (counting a minimum of 1,000 erythrocytes) was calculated from the preparation of thin blood and then used to calculate the percentage of plasmodium growth inhibition. […] Antiplasmodial activity is expressed as IC50, which is the concentration of a compound that is required for 50% inhibition of plasmodium growth. The IC50 value was calculated by probit analysis using SPSS software (IBM Corp., Chicago). The lower the IC50 value obtained, the greater the antiplasmodial activity.

[2] = system: Plasmodium falciparum FCR-3 (chloroquine-resistant strain); test: In vitro antiplasmodial activity assay, microscopic method, strain FCR-3; format: cell-based; conditions: for IC50: 72 hours incubation, microscopic method, read-out: IC50 on P. falciparum FCR-3; for antiplasmodial activity category on P. falciparum FCR-3: category by IC50
Protocol: as §1, §2, §3

Vero cells = test: In vitro cytotoxicity test, MTT assay on Vero cell line; format: cell-based; conditions: for IC50: MTT assay; for Selectivity index 3D-7: ratio IC50 on Vero cell/IC50 on P. falciparum 3D-7; for Selectivity index FCR-3: ratio IC50 on Vero cell/IC50 on P. falciparum FCR-3
Protocol: The in vitro cytotoxicity test was conducted using the 3-(4,5-dimethylthiazol-2-yl)2,5-diphenyltetrazolium bromide (MTT) assay method on Vero cell line culture using the Anderson et al.'s modified method.
The cell was removed from the cryo medium. Then, the cell was thawed at 37°C. The liquid cell was subsequently transferred to the tube and a culture medium was added to a volume of 10 mL. Then, the suspension was centrifuged for 15 minutes so that it would form cell pellets. The supernatant was removed and 1 mL of culture medium was added to the cell pellets. Finally, the suspension was transferred to the Petri dish and incubated in the incubator with 5% of CO2 at 37°C.
The medium of Vero cell culture was removed, and then the cell was washed using a PBS solution with a volume of PBS ± 1/2 of the initial medium volume. This step was done twice and 1 mL of trypsin 0.25% was added. Subsequently, the cell was incubated in the CO2 incubator at 37°C for 3 minutes. Then, the cell was resuspended using 2 mL of culture medium and PBS solution was added up to 10 mL. The suspension was centrifuged for 15 minutes so that it formed pellets. Pellets were added with 1 mL of culture medium and resuspended. Take 10 μL of the cell suspension and density of cells was calculated.
Then, the cell was added with culture medium to 10 mL. A total of 100 μL of such suspensions was transferred into each well of the 96-well microplate, but three of the wells were emptied as medium controls. Subsequently, the microplate was incubated in a 5% CO2 incubator at 37°C.
Each hydroxyxanthone derivative compound was dissolved in DMSO, and a variety of concentrations were prepared in the medium. Each concentration of the testing compound was added into the 96-well microplate triplicately. Cell control and medium control were not given a testing compound solution. The medium control remained blank, while the cell control contained culture medium only. […] Then, the cell was incubated in a 5% CO2 incubator at 37°C for 24 hours.
After the cell was incubated for 24 hours, the medium was discarded and washed with PBS. Then, each well was added with 100 μL of 5 mg/mL of MTT solution. The 96-well microplate was incubated again in the incubator of CO2 at 37°C for 4 hours. Then, 100 μL of 10% of SDS in 0.01 MHCl was added. The cells were placed in a dark room at room temperature for 24 hours.
The absorbance was measured using the enzyme-linked immunosorbent assay (ELISA) reader at 595 nm wavelength. The cytotoxicity test on the Vero cells was done by calculating the percentage of Vero cell inhibition of the absorption value of the test compound, cell control, and medium control. The cytotoxic effect was expressed as IC50. The IC50 value was obtained from the probit analysis by using SPSS software (IBM Corp., Chicago). The degree of selectivity was expressed as a selectivity index. The selectivity index was obtained from the ratio between the IC50 cytotoxic effect on Vero cells and IC50 antiplasmodial activity on Plasmodium. A compound is said to be safe if the value of the selectivity index is >10 [20].

MCF-7 = system: MCF-7; design: method as in earlier work; conditions: cited from earlier work
WIDR = system: WIDR; design: method as in earlier work; conditions: cited from earlier work
Hela = system: Hela; design: method as in earlier work; conditions: cited from earlier work
[3] = Chlorocebus sabaeus, Vero, 24 h, 24 hours incubation

O=c1c2ccc(O)cc2oc2cccc(O)c12 [HX2, 1,6-dihydroxyxanthone]
inhibition at 54.78 µM ([1]; Plasmodium falciparum, 54.78 μM, read-out: Growth inhibition of P. falciparum Strain 3D-7): 49.2 ± 1.61%
inhibition at 109.55 µM ([1]; Plasmodium falciparum, 109.55 μM, read-out: Growth inhibition of P. falciparum Strain 3D-7): 54.8 ± 2.43%
inhibition at 219.11 µM ([1]; Plasmodium falciparum, 219.11 μM, read-out: Growth inhibition of P. falciparum Strain 3D-7): 67.16 ± 0.601%
inhibition at 438.21 µM ([1]; Plasmodium falciparum, 438.21 μM, read-out: Growth inhibition of P. falciparum Strain 3D-7): 73.62 ± 0.713%
inhibition at 876.42 µM ([1]; Plasmodium falciparum, 876.42 μM, read-out: Growth inhibition of P. falciparum Strain 3D-7): 90.56 ± 0.665%
IC50 ([1]; Plasmodium falciparum): 71.78 ± 0.31 µM
antiplasmodial activity category on P. falciparum 3D-7 [1]: moderate (moderate (IC50 20–100 μM))
inhibition at 54.78 µM ([2]; Plasmodium falciparum, FCR3, 54.78 μM, read-out: Growth inhibition of P. falciparum Strain FCR-3): 47.2 ± 0.687%
inhibition at 109.55 µM ([2]; Plasmodium falciparum, FCR3, 109.55 μM, read-out: Growth inhibition of P. falciparum Strain FCR-3): 50.2 ± 2.63%
inhibition at 219.11 µM ([2]; Plasmodium falciparum, FCR3, 219.11 μM, read-out: Growth inhibition of P. falciparum Strain FCR-3): 67.1 ± 2.76%
inhibition at 438.21 µM ([2]; Plasmodium falciparum, FCR3, 438.21 μM, read-out: Growth inhibition of P. falciparum Strain FCR-3): 74.2 ± 1.32%
inhibition at 876.42 µM ([2]; Plasmodium falciparum, FCR3, 876.42 μM, read-out: Growth inhibition of P. falciparum Strain FCR-3): 87.6 ± 2.24%
IC50 ([2]; Plasmodium falciparum, FCR3): 81.8 ± 5.78 µM
antiplasmodial activity category on P. falciparum FCR-3 [2]: moderate (moderate (IC50 20–100 μM))
IC50 (Vero cells; 24 hours incubation): 308 µM
IC50 (Vero cells; [3]): 390 µM
inhibition at 54.13 µM (Vero cells; Chlorocebus sabaeus, Vero, 24 h, 54.13 μM, read-out: Vero cell growth inhibition after 24 hours incubation): 15.6%
inhibition at 108.26 µM (Vero cells; Chlorocebus sabaeus, Vero, 24 h, 108.26 μM, read-out: Vero cell growth inhibition after 24 hours incubation): 31.8%
inhibition at 216.86 µM (Vero cells; Chlorocebus sabaeus, Vero, 24 h, 216.86 μM, read-out: Vero cell growth inhibition after 24 hours incubation): 38.9%
inhibition at 433.73 µM (Vero cells; Chlorocebus sabaeus, Vero, 24 h, 433.73 μM, read-out: Vero cell growth inhibition after 24 hours incubation): 59.8%
inhibition at 867.45 µM (Vero cells; Chlorocebus sabaeus, Vero, 24 h, 867.45 μM, read-out: Vero cell growth inhibition after 24 hours incubation): 67%
inhibition at 1734.91 µM (Vero cells; Chlorocebus sabaeus, Vero, 24 h, 1734.91 μM, read-out: Vero cell growth inhibition after 24 hours incubation): 86.1%
IC50 (Vero cells; Chlorocebus sabaeus, Vero): 88.9 µg/mL
Selectivity index 3D-7 (Vero cells): 4.30
Selectivity index FCR-3 (Vero cells): 3.77
cytotoxicity on MCF-7 (in words) (MCF-7): weak
cytotoxicity on WIDR (in words) (WIDR): weak
cytotoxicity on Hela (in words) (Hela): weak

O=c1c2ccc(O)c(O)c2oc2cccc(O)c12 [HX3, 1,5,6-trihydroxyxanthone]
inhibition at 25.59 µM ([1]; Plasmodium falciparum, 25.59 μM, read-out: Growth inhibition of P. falciparum Strain 3D-7): 47.3 ± 0.611%
inhibition at 51.19 µM ([1]; Plasmodium falciparum, 51.19 μM, read-out: Growth inhibition of P. falciparum Strain 3D-7): 63.4 ± 0.421%
inhibition at 102.38 µM ([1]; Plasmodium falciparum, 102.38 μM, read-out: Growth inhibition of P. falciparum Strain 3D-7): 68.89 ± 0.151%
inhibition at 204.75 µM ([1]; Plasmodium falciparum, 204.75 μM, read-out: Growth inhibition of P. falciparum Strain 3D-7): 80.92 ± 0.679%
inhibition at 409.5 µM ([1]; Plasmodium falciparum, 409.5 μM, read-out: Growth inhibition of P. falciparum Strain 3D-7): 87.4 ± 1.15%
IC50 ([1]; Plasmodium falciparum): 27.64 ± 0.19 µM
antiplasmodial activity category on P. falciparum 3D-7 [1]: moderate (moderate (IC50 20–100 μM))
inhibition at 25.59 µM ([2]; Plasmodium falciparum, FCR3, 25.59 μM, read-out: Growth inhibition of P. falciparum Strain FCR-3): 38.3 ± 1.19%
inhibition at 51.19 µM ([2]; Plasmodium falciparum, FCR3, 51.19 μM, read-out: Growth inhibition of P. falciparum Strain FCR-3): 43.13 ± 0.126%
inhibition at 102.38 µM ([2]; Plasmodium falciparum, FCR3, 102.38 μM, read-out: Growth inhibition of P. falciparum Strain FCR-3): 51.92 ± 0.466%
inhibition at 204.75 µM ([2]; Plasmodium falciparum, FCR3, 204.75 μM, read-out: Growth inhibition of P. falciparum Strain FCR-3): 71.9 ± 7.84%
inhibition at 409.5 µM ([2]; Plasmodium falciparum, FCR3, 409.5 μM, read-out: Growth inhibition of P. falciparum Strain FCR-3): 83 ± 1.4%
IC50 ([2]; Plasmodium falciparum, FCR3): 64.1 ± 5.08 µM
antiplasmodial activity category on P. falciparum FCR-3 [2]: moderate (moderate (IC50 20–100 μM))
IC50 (Vero cells; 24 hours incubation): 224 µM
IC50 (Vero cells; [3]): 230 µM
inhibition at 63.88 µM (Vero cells; Chlorocebus sabaeus, Vero, 24 h, 63.88 μM, read-out: Vero cell growth inhibition after 24 hours incubation): 20.7%
inhibition at 127.76 µM (Vero cells; Chlorocebus sabaeus, Vero, 24 h, 127.76 μM, read-out: Vero cell growth inhibition after 24 hours incubation): 39.6%
inhibition at 255.94 µM (Vero cells; Chlorocebus sabaeus, Vero, 24 h, 255.94 μM, read-out: Vero cell growth inhibition after 24 hours incubation): 55.7%
inhibition at 511.88 µM (Vero cells; Chlorocebus sabaeus, Vero, 24 h, 511.88 μM, read-out: Vero cell growth inhibition after 24 hours incubation): 68%
inhibition at 1023.75 µM (Vero cells; Chlorocebus sabaeus, Vero, 24 h, 1023.75 μM, read-out: Vero cell growth inhibition after 24 hours incubation): 79.9%
inhibition at 2047.5 µM (Vero cells; Chlorocebus sabaeus, Vero, 24 h, 2047.50 μM, read-out: Vero cell growth inhibition after 24 hours incubation): 88.9%
IC50 (Vero cells; Chlorocebus sabaeus, Vero): 56.2 µg/mL
Selectivity index 3D-7 (Vero cells): 8.12
Selectivity index FCR-3 (Vero cells): 3.50
cytotoxicity on MCF-7 (in words) (MCF-7): weak
cytotoxicity on WIDR (in words) (WIDR): weak
cytotoxicity on Hela (in words) (Hela): weak
